Test results published in PubChem BioAssay (NCI).
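96-well plates; 48 h exposure; 5 concentrations. Endpoints by linear interpolation between flanking doses. Not reached: highest tested concentration assigned. GI50 is the concentration that inhibits growth by half. The concentration for full growth arrest is given as TGI.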

Legend:
Assay in all cases: NCI-60 cell line screen, 48 h
BT-549 breast = tested on: BT-549 breast
MDA-MB-231 breast = tested on: MDA-MB-231 breast
HL-60(TB) leukemia = tested on: HL-60(TB) leukemia
LOX IMVI melanoma = tested on: LOX IMVI melanoma
UACC-62 melanoma = tested on: UACC-62 melanoma
UO-31 renal = tested on: UO-31 renal
SNB-75 CNS = tested on: SNB-75 CNS
MCF7 breast = tested on: MCF7 breast

SMILES	TGI (BT-549 breast) [µM]	TGI (MDA-MB-231 breast) [µM]	TGI (HL-60(TB) leukemia) [µM]	TGI (LOX IMVI melanoma) [µM]	TGI (UACC-62 melanoma) [µM]	TGI (UO-31 renal) [µM]	TGI (SNB-75 CNS) [µM]	TGI (MCF7 breast) [µM]	GI50 (BT-549 breast) [µM]	GI50 (MDA-MB-231 breast) [µM]	GI50 (HL-60(TB) leukemia) [µM]	GI50 (LOX IMVI melanoma) [µM]	GI50 (UACC-62 melanoma) [µM]	GI50 (UO-31 renal) [µM]	GI50 (SNB-75 CNS) [µM]	GI50 (MCF7 breast) [µM]
CCOc1c(N=Nc2ccccc2Cl)c(-c2ccccc2)nn1C(=S)S	> 100	56.5	> 100	46.1	> 100	> 100	> 100	> 100								
O=c1[nH]c2nc(NC3CCOCC3)ncc2cc1Oc1ccc(F)cc1F	> 25	> 25	> 25	> 25	> 25	> 25	> 25	> 25	> 25	> 25	> 25	> 25	> 25	> 25	> 8.27	> 25
COc1cc2c(cc1OCCCCCCN1CCN(CC(=O)Nc3ccc(Cl)cc3C(=O)c3ccccc3Cl)CC1)N=CC1CCCN1C2=O (stereo unspecified)	0.898	1.07		0.305	0.975	0.681	0.472	0.321	0.252	0.383	0.244	0.157	0.408	0.242	0.169	0.153
c1cncc(CNCc2cccnc2)c1	> 100	> 100	> 100	> 100	> 100	> 100	> 100	> 100								
O=c1cc(N/N=C/c2ccc(F)cc2)c2cc(Cl)ccc2[nH]1	44.5	51.7	50.9	> 100	> 100	> 100	83.1	> 100	15.8	16	18.8	25.3	16.7	21.9	12.7	15.3
O=P1(S)OC[C@H]2O[C@@H]3[C@H](F)[C@@H]2OP(O)(=S)OC[C@H]2O[C@H]([C@H](F)[C@@H]2O1)n1cnc2c(ncnc21)NC/C=C/CNc1ncnc2c1ncn23 (stereo partly specified)	> 100	> 100		> 100	> 100	> 100	> 100	> 100		> 100	0.365	> 100	> 100	> 100	> 79.9	> 100
CCN(c1cc(-c2ccc(CN3CCOCC3)cc2)cc(C(=O)NCc2c(C)cc(C)[nH]c2=O)c1C)C1CCOCC1	37.4	44.7	56.2	30.3	31.6	> 51.3	> 91.9	> 100	17.3	20.4	17.5	15.9	16	14.9	16.7	24.2
C1CC[N-]CC1.CC(=N\O)/C(C)=N/O.CC(=N\O)/C(C)=N/O.OC1[CH-]CCCC1.[Co+2]	> 100	> 100	72.5	> 100	41.2	> 100	> 100	> 100	37.8	> 100	21.7	36.4	18.1	> 100	26.9	38.7
COC(=O)COc1ccc(/C=C2/N=C(c3ccccc3)N(c3c(C)n(C)n(-c4ccccc4)c3=O)C2=O)cc1	42	45.1	67.2	32.8	32.1	32.3	30.7	32.9	17.1	21.8	26.2	18	17.6	17	16.7	14.1
CN(C)CCSS(=O)(=O)O	> 100	> 100	> 100	> 100	> 100	> 100	> 100	> 100								
Cc1ccc(S(=O)(=O)c2nc(-c3ccccc3)oc2S(C)=O)cc1 (stereo unspecified)	3.37	2.87	4.71	2.81	2.87	2.53	9.55	3.62	1.71	1.47	1.52	1.4	1.5	1.26	2.69	1.21
Cc1c2cc(Cl)c3ccccc3c2c[n+]2ccccc12	5.4	39.8	55.3	38.9	13.3	> 100	12.9	15	1.21	11.9	19.2	15	2.61	9.18	2.31	2.28
C#Cc1nc2ccccc2c(=O)[nH]1	0.422	1.49	0.807	0.315	1.03	1.61	5.16	2.75	0.222	0.318	0.26	0.168	0.286	0.383	1.8	0.282
